In one test the test system is HA-RAD51D. The test is described as follows: HA-RAD51D protein levels after CHX with or without proteasome inhibitor MG132. It is filed as cell-based, mouse. Also on record: HA-RAD51D protein levels elevated: dose or concentration left out as unconfirmed. The protocol: FIG. 18 illustrates analysis of MEFs that were treated with CHX ([…]) or CHX in combination with MG132 ([…]). Cell lysates were prepared at the 4 hour time point, and HA-RAD51D band intensity was calculated as described herein.
To determine whether decreased HA-RAD51D half-life can be attributed to proteasome degradation, HA-RAD51D protein levels were assessed following treatment with the proteasome inhibitor MG132. As anticipated, HA-RAD51D protein levels were elevated up to 42% in MG132 treated samples (FIG. 18, lanes 1-4) indicating RAD51D protein levels are in part regulated by the proteasome.

Another test relates to RAD51 foci. Kind of test: RAD51 foci formation by immunofluorescence in MEFs. Conditions: MMC 200 ng/mL, 16 h exposure, RNF138 proficient MEFs; untreated control approximately 21 percent; p<0.01. Type of test: cell-based, mouse. The protocol:
The presence of RAD51 foci was examined in MEFs subjected to either 200 ng/mL Mitomycin C (MMC) treatment or with no treatment. In addition, both deficient RNF138 cells and proficient RNF138 cells were examined.
For analysis of RAD51 foci formation, 10,000 cells were seeded onto glass coverslips for transfection with Rnf138 siRNA. Twenty-four hr following siRNA transfection, cells were challenged with MMC (200 ng/mL) for 16 hr. Immunofluoresence detection of RAD51 foci was carried out as is generally known I the art (see, e.g., Smiraldo et al., 2005). Cells containing five or more distinct foci were scored positive. For each condition, a minimum of 250 cells from at least three independent experiments was analyzed (n≧750).
The presence of RAD51 foci monitored by immunofluorescence is illustrated in FIGS. 12A-D. RAD51 foci indicates DNA damaged sites undergoing HR repair. MMC treatment (200 ng/mL) increased the percentage of cells containing 5 or more distinct RAD51 foci from approximately 21 percent for untreated control cells (FIG. 12B) to 51 percent (FIG. 12D) following a 16 h exposure (p<0.01). […] In addition, RAD51 foci formation was less in untreated RNF138 deficient (FIG. 12A) versus RNF138 proficient (FIG. 12B) MEFs. Although, a notable increase in RAD51 foci is still detected upon MMC treatment (FIG. 13).

Where a SMILES comes first, the peptide text is derived from it. The star is where a group is joined. Cbz = O=C(OCc1ccccc1)*

For the compound `CC(C)C[C@@H](C=O)NC(=O)[C@H](CC(C)C)NC(=O)[C@H](CC(C)C)NC(=O)OCc1ccccc1` [MG132] (Cbz-Leu-Leu-Leu-aldehyde), the “HA-RAD51D protein stability following knockdown of RNF138 expression” value with HA-RAD51D (CHX plus MG132, 4 hour time point, RNF138 knockdown MEFs) was “failed to increase”. Moreover, the “HA-RAD51D protein levels elevated” value in the test on HA-RAD51D (CHX, 4 hour time point, MEFs) is given as “up to 42%”. As for `CO[C@@]12[C@H](COC(N)=O)C3=C(C(=O)C(C)=C(N)C3=O)N1C[C@@H]1N[C@@H]12` [MMC, Mitomycin C], the “percentage of cells containing 5 or more distinct RAD51 foci” value in the test on RAD51 foci was determined as 51%.

Values taken from patent US9095561B2, “Methods for affecting homology-directed DNA double stranded break repair” (University of South Carolina, priority 2010, dated 2015).
